According to patent publication US20030069187A1, “Elastase inhibitors” (priority 2001, published 2003):

Tests used:
elastase = conditions: other elastase inhibitors, compared with AFP; cited from earlier work
[1] = biological target: T1, porcine pancreatic elastase (PPE) (Sus scrofa, UniProt P00772); assay: Elastase inhibitory capacity assay with succinylated elastin substrate; format: biochemical; conditions: 0.029 U PPE, 200 μg succinylated elastin; for increase in elastase inhibitory capacity compared to total EDP: 37° C. 30 min, % inhibition standardized to μg protein, p<0.001
T1 construct: purchased Calbiochem, San Diego, Calif
Description: FIG. 1 is a bar graph depicting results from experiments in which the inhibitory capacity of each EDP isolate was evaluated in triplicate using 200 μg of succinylated elastin (Rao et al., 1997; Mathrubutham et al., 1998), 30 μg of Total EDP, […] of G-25 fractions and RP-HPLC fractions and 0.029 U PPE in 150 μl with 50 mM sodium borate pH8.5. Reactions were incubated at 37° C. for 30 minutes, then treated with 2,4,6-trinitrobenzene sufonic acid. Absorbance at A450nm was determined after 20 min at room temperature. Elastase inhibitory capacity was evaluated by comparing the activity of PPE in the presence and absence of EDP, where elastase in the absence of EDP was considered to represent 100% elastase activity. The data was standardized to protein content and is presented as % inhibition per μg of protein. […] PEP7 is VPG; PEP8 is AGIP and PEP9 is AFP.
Total EDP was fractionated on a G-25 Sephadex column equilibrated with 50 mM sodium borate pH 8.5 at a flow rate of 0.7 ml/minute. G-25 inhibitory fractions were then analyzed by reverse phase high performance liquid chromatography (RP-HPLC) using a C-18 column (Vydac, Hesperia, Calif.) with 5% acetonitrile, 0.1% triflouroacetic acid pH 2.3 as RP buffer at a flow rate of 0.5 ml/minutes and monitored at A205nm. Fractions were collected, dried, and resuspended in 50 μl water and assayed for elastase inhibitory capacity (Rao et al., 1997; Mathrabutham et al., 1998). The inhibitory capacity of G-25 and RP-HPLC EDP fractions were evaluated (Rao et al., 1997; Mathrabutham et al., 1998) using 3 μg of G-25 fraction and RP-HPLC peptide with 0.029 U PPE. Percentage inhibitory capacity was evaluated by comparing the activity of PPE in the presence and absence (100% activity) of EDP and standardized to μg protein. The inhibitor constant (Ki) was experimentally calculated (Lineweaver et al., 1936). […]

T1 sequence (P00772 27-266): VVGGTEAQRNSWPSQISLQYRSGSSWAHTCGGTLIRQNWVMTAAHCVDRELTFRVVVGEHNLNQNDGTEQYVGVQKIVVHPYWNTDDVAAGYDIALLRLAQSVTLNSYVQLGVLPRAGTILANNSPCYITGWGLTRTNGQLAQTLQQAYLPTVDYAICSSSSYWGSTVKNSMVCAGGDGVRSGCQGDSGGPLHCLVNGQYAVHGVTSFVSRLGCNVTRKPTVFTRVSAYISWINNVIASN

Molecule	increase in elastase inhibitory capacity compared to total EDP [1] [fold]	also measured
CC(C)C[C@H](NC(=O)N[C@H](C(=O)N[C@@H](CCC(N)=O)C(=O)N[C@@H](C)C=O)[C@@H]1CCNC(=N)N1)C(=O)O [elastatinal]		Ki (elastase): 50 µM
Ala-Gly-Ile-Pro (AGIP; printed: Ala-Gly-Ile-Pro)	4.3	
VGVAPG		elastase inhibition (% inhibition per μg of protein) ([1]; FIG. 1): elastase inhibition is a characteristic that is not shared by all EDPs
Val-Pro-Gly [VPG]	4.8	
